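Grown in 96-well plates, cells were treated for 48 hours with each compound at five concentrations. Insufficient inhibition: endpoint recorded as highest concentration tested. GI50 = concentration required for 50% inhibition of growth. TGI: total growth inhibition.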
Columns and labels:
Experiment in all cases: DTP human tumour cell line panel, 48 h
SN12C renal = tested on: SN12C renal
HS 578T breast = tested on: HS 578T breast
SK-MEL-5 melanoma = tested on: SK-MEL-5 melanoma
UACC-62 melanoma = tested on: UACC-62 melanoma
DU-145 prostate = tested on: DU-145 prostate
A549 NSCLC = tested on: A549 NSCLC
NCI-H23 lung = tested on: NCI-H23 lung
OVCAR-3 ovarian = tested on: OVCAR-3 ovarian
HOP-92 NSCLC = tested on: HOP-92 NSCLC
MALME-3M melanoma = tested on: MALME-3M melanoma
SF-268 CNS = tested on: SF-268 CNS
ACHN renal = tested on: ACHN renal
M14 melanoma = tested on: M14 melanoma
OVCAR-5 ovarian = tested on: OVCAR-5 ovarian
SW-620 colon = tested on: SW-620 colon
NCI/ADR-RES ovarian = tested on: NCI/ADR-RES ovarian
OVCAR-4 ovarian = tested on: OVCAR-4 ovarian
EKVX NSCLC = tested on: EKVX NSCLC
SF-295 CNS = tested on: SF-295 CNS
SF-539 CNS = tested on: SF-539 CNS
SNB-75 CNS = tested on: SNB-75 CNS
PC-3 prostate = tested on: PC-3 prostate
HCT-15 colon = tested on: HCT-15 colon
IGROV1 ovarian = tested on: IGROV1 ovarian
SK-OV-3 ovarian = tested on: SK-OV-3 ovarian
A498 renal = tested on: A498 renal
UO-31 renal = tested on: UO-31 renal
HCT-116 colon = tested on: HCT-116 colon
MDA-MB-435 = tested on: MDA-MB-435
NCI-H226 lung = tested on: NCI-H226 lung
HT29 colon = tested on: HT29 colon
SK-MEL-28 melanoma = tested on: SK-MEL-28 melanoma
MDA-MB-231 breast = tested on: MDA-MB-231 breast
CCRF-CEM leukemia = tested on: CCRF-CEM leukemia
MCF7 breast = tested on: MCF7 breast
HL-60(TB) leukemia = tested on: HL-60(TB) leukemia
SNB-19 CNS = tested on: SNB-19 CNS
HCC-2998 colon = tested on: HCC-2998 colon
NCI-H522 lung = tested on: NCI-H522 lung
OVCAR-8 ovarian = tested on: OVCAR-8 ovarian
HOP-62 NSCLC = tested on: HOP-62 NSCLC
KM12 colon = tested on: KM12 colon
LOX IMVI melanoma = tested on: LOX IMVI melanoma
TK-10 renal = tested on: TK-10 renal
786-0 renal = tested on: 786-0 renal
SR leukemia = tested on: SR leukemia
MOLT-4 leukemia = tested on: MOLT-4 leukemia
UACC-257 melanoma = tested on: UACC-257 melanoma
COLO 205 colon = tested on: COLO 205 colon
T-47D breast = tested on: T-47D breast
NCI-H460 lung = tested on: NCI-H460 lung
RXF 393 renal = tested on: RXF 393 renal

Work on `OCCCc1n(Cc2ccc3ccccc3c2)c2ccccc2[n+]1Cc1ccc2ccccc2c1` yielded a GI50 (SN12C renal) of 1.85 µM, a TGI (SN12C renal) of 10.2 µM and a GI50 (HS 578T breast) of 2.15 µM. It also gave a TGI (HS 578T breast) of 7.96 µM, a GI50 (SK-MEL-5 melanoma) of 1.11 µM and a TGI (SK-MEL-5 melanoma) of 2.32 µM. The GI50 (UACC-62 melanoma) was 0.666 µM, the TGI (UACC-62 melanoma) was 2.09 µM and the GI50 (DU-145 prostate) was 3.52 µM. The TGI (DU-145 prostate) was 14.2 µM, the GI50 (A549 NSCLC) was 6.97 µM and the TGI (A549 NSCLC) was 31.4 µM. It also gave a GI50 (NCI-H23 lung) of 1.65 µM, a TGI (NCI-H23 lung) of 8.17 µM and a GI50 (OVCAR-3 ovarian) of 1.07 µM. For the same molecule, the TGI (OVCAR-3 ovarian) was 2.81 µM, the GI50 (HOP-92 NSCLC) was 0.567 µM and the TGI (HOP-92 NSCLC) was 3.1 µM. The GI50 (MALME-3M melanoma) was 1.28 µM, the TGI (MALME-3M melanoma) was 2.82 µM and the GI50 (SF-268 CNS) was 1.81 µM. For the same molecule, the TGI (SF-268 CNS) was 4.56 µM, the GI50 (ACHN renal) was 12.5 µM and the TGI (ACHN renal) was 28 µM. The GI50 (M14 melanoma) was 1.33 µM, the TGI (M14 melanoma) was 3.56 µM and the GI50 (OVCAR-5 ovarian) was 1.98 µM. For the same molecule, the TGI (OVCAR-5 ovarian) was 7.17 µM, the GI50 (SW-620 colon) was 1.46 µM and the TGI (SW-620 colon) was 3.22 µM. The GI50 (NCI/ADR-RES ovarian) was 27 µM, the TGI (NCI/ADR-RES ovarian) was greater than 100 µM and the GI50 (OVCAR-4 ovarian) was 0.67 µM. For the same molecule, the TGI (OVCAR-4 ovarian) was 6.73 µM, the GI50 (EKVX NSCLC) was 3.68 µM and the TGI (EKVX NSCLC) was 19.4 µM. The GI50 (SF-295 CNS) was 2.64 µM, the TGI (SF-295 CNS) was 11.3 µM and the GI50 (SF-539 CNS) was 2.01 µM. For the same molecule, the TGI (SF-539 CNS) was 6.51 µM, the GI50 (SNB-75 CNS) was 1.59 µM and the TGI (SNB-75 CNS) was 4.97 µM. For the same molecule, the GI50 (PC-3 prostate) was 1.74 µM, the TGI (PC-3 prostate) was 11.1 µM and the GI50 (HCT-15 colon) was 11.2 µM. For the same molecule, the TGI (HCT-15 colon) was 24.8 µM, the GI50 (IGROV1 ovarian) was 0.8 µM and the TGI (IGROV1 ovarian) was 2.48 µM. It also gave a GI50 (SK-OV-3 ovarian) of 2.87 µM, a TGI (SK-OV-3 ovarian) of 13.6 µM and a GI50 (A498 renal) of 1.38 µM. The TGI (A498 renal) was 5.18 µM, the GI50 (UO-31 renal) was 10.4 µM and the TGI (UO-31 renal) was 25.3 µM. The GI50 (HCT-116 colon) was 1.05 µM, the TGI (HCT-116 colon) was 2.59 µM and the GI50 (MDA-MB-435) was 1.22 µM. The TGI (MDA-MB-435) was 2.71 µM, the GI50 (NCI-H226 lung) was 2.23 µM and the TGI (NCI-H226 lung) was 10.5 µM. It also gave a GI50 (HT29 colon) of 1.02 µM, a TGI (HT29 colon) of 4.17 µM and a GI50 (SK-MEL-28 melanoma) of 1.22 µM. For the same molecule, the TGI (SK-MEL-28 melanoma) was 2.88 µM, the GI50 (MDA-MB-231 breast) was 1.32 µM and the TGI (MDA-MB-231 breast) was 2.78 µM. The GI50 (CCRF-CEM leukemia) was 1.99 µM, the TGI (CCRF-CEM leukemia) was 5.65 µM and the GI50 (MCF7 breast) was 1.7 µM. For the same molecule, the TGI (MCF7 breast) was 3.67 µM, the GI50 (HL-60(TB) leukemia) was 0.507 µM and the TGI (HL-60(TB) leukemia) was 2.36 µM. It also gave a GI50 (SNB-19 CNS) of 1.27 µM, a TGI (SNB-19 CNS) of 2.85 µM and a GI50 (HCC-2998 colon) of 1.65 µM. It also gave a TGI (HCC-2998 colon) of 3.25 µM, a GI50 (NCI-H522 lung) of 1.05 µM and a TGI (NCI-H522 lung) of 3.95 µM. For the same molecule, the GI50 (OVCAR-8 ovarian) was 2.67 µM, the TGI (OVCAR-8 ovarian) was 14 µM and the GI50 (HOP-62 NSCLC) was 2.32 µM. The TGI (HOP-62 NSCLC) was 11.6 µM, the GI50 (KM12 colon) was 1.4 µM and the TGI (KM12 colon) was 3.08 µM. For the same molecule, the GI50 (LOX IMVI melanoma) was 1.34 µM, the TGI (LOX IMVI melanoma) was 2.68 µM and the GI50 (TK-10 renal) was 1.95 µM. The TGI (TK-10 renal) was 4.74 µM, the GI50 (786-0 renal) was 2.09 µM and the TGI (786-0 renal) was 4.74 µM. It also gave a GI50 (SR leukemia) of 1.16 µM, a TGI (SR leukemia) of 3.78 µM and a GI50 (MOLT-4 leukemia) of 1.88 µM. It also gave a TGI (MOLT-4 leukemia) of 5.24 µM, a GI50 (UACC-257 melanoma) of 1.18 µM and a TGI (UACC-257 melanoma) of 3.25 µM. The GI50 (COLO 205 colon) was 0.838 µM, the TGI (COLO 205 colon) was 2.53 µM and the GI50 (T-47D breast) was 0.615 µM. For the same molecule, the TGI (T-47D breast) was 6.82 µM, the GI50 (NCI-H460 lung) was 2.43 µM and the TGI (NCI-H460 lung) was 9.57 µM. The GI50 (RXF 393 renal) was 1.5 µM and the TGI (RXF 393 renal) was 3.83 µM.
